Read-outs that look alike come from different tables or passages of the source. Starred links: 1 amine or outer side, 2 acyl side, 3 side chain; linkers in the order of their positions; H or OH if unused. Positions of bridges follow the written chain, without caps; N, C: chain ends. Non-standard residues stand in square brackets, D forms with d. Residues, ends and D or L forms follow the SMILES beside them. X1 = O=C([C@]1(CC=[*:3])CCCN1[*:1])[*:2]; S5 = C=CCCC[C@](C)(N)C(=O)O; Nle = CCCC[C@H](N)C(=O)O
Assays:
[1] = CHI Log D measurement (chromatographic hydrophobicity index); conditions: pH 7.4
[2] = biological target: T1, ERβ LBD (Homo sapiens, UniProt Q92731); experiment: Competition fluorescence polarization (FP) binding assay with FITC-ERL4 probe; conditions: read-out: EC50
T1 construct: pET28a+ vector containing ERβ LBD (residues from 261 to 500) along with an N-terminal His6-yBBr-TEV tag; His6 (N); yBBr (N); TEV cleavage site (N); made in house; host or cells: E. coli BL21(DE3) pLysS
Procedure: In addition to the PAMPA assay, to study the affinity of the first-generation ProLock™ stapled peptides to the Estrogen receptor p ligand-binding domain (ERβ LBD), a fluorescence polarization (FP) binding assay in competition format was used in the presence of the endogenous ERβ LBD ligand estradiol. Competition Fluorescence Polarization (FP) assay was performed on the peptides to determine their half-maximal effective concentration (EC50). To do this, FITC labeled ERL4 peptide (FITC-βAla-His-Pro-Leu-Leu-Nle-Arg-Leu-Leu-Leu-Ser-Pro-CONH2) was synthesized to be used as a fluorescence probe based on existing literature (Fuchs et al., Journal of the American Chemical Society 2013, 135 (11), 4364-4371). Direct FP was performed in black 384-well plates (Corning). The final volume of each assay well was 40 μL with constant concentration of FITC labeled ERL4 peptide (10 nM) and variable concentrations of ERβ LBD protein.
ERβ LBD expression and purification was performed as follows. BL21(DE3) pLysS E. coli cells were transformed with a pET28a+ vector containing ERβ LBD (residues from 261 to 500) along with an N-terminal His6-yBBr-TEV tag. An overnight culture in 10 mL of TB media containing 50 μg/mL kanamycin was prepared from a single bacterial colony. The overnight culture was subsequently added to 1 liter of autoclaved TB media containing 50 μg/mL kanamycin and shaken at 37° C. until an OD of 0.6-0.8 was reached. IPTG was added to the culture and left shaking for 6 hours. Bacterial culture was pelleted and resuspended in lysis buffer. Resuspended bacterial culture was incubated at 0° C. for 10 minutes before sonication at 65% amplitude with 10-sec cycles using a Branson Sonifier. The lysate was then cleared by centrifugation at 8000×g for 20 min. […] The expected molecular weight of the ERβ LBD protein is 30.8 KDa, which molecular weight was confirmed by SDS PAGE analysis. Purified ERβ LBD was concentrated to 90 μM and was stored at −80° C. buffer.
Competition FP assays were also employed. These were performed in black 384-well plates (Corning). The final volume of each assay well was 80 μL containing constant concentrations of estradiol (1 μM) and FITC labeled ERL4 (10 nM). The ERβ LBD concentration was held constant (200 nM) while varying the concentration of ProLock stapled peptides (3-fold dilution from 10 μM). Upon addition of samples to each well, the plate was centrifuged for 10 seconds at 3000 rpm and incubated at 4° C. for 1 hour. FP measurements were performed at room temperature with excitation and emission wavelengths at 485 and 535 nm using a Clariostar microplate reader (BMG Labtech). Each plate had high and low polarization samples, which are used to normalize the assay data. The competition FP results were analyzed by Prism 7 (GraphPad). The non-linear regression analysis of the data was used to determine the half-maximal effective concentration (EC50) of ProLock stapled peptides. […] The normalized FP values shown in FIG. 6 are mean±S.E.M of at least four independent replicates.

[3] = for % Retention: PAMPA
Procedure: (§1) The synthesized peptides were first analyzed with a PAMPA assay. […] The PAMPA plate system is composed of two compartments, donor and acceptor, which are separated by a phospholipid-infused membrane. The amount of compound transferred from the acceptor well into the donor well over a period of incubation time is used to determine the passive permeability of a compound.
(§2) The two plates are separated by a membrane infused with phospholipids. […] The amount of compound transferred from one well to the other is usually quantified by reverse-phase HPLC-mass spectrometry.
(§3) Briefly, all PAMPA assays were performed using the commercially available PAMPA plate system from Corning, which uses a proprietary membrane composed of structured phospholipids. […] To prevent nonspecific peptide loss to the plates, the acceptor wells of the Corning PAMPA plates were blocked overnight with 5% nonfat milk with 0.1% Triton X-100 in Dulbecco's phosphate buffer saline (DPBS) at pH=7.4, followed by extensive washing prior to assays. The donor wells and membrane itself were not exposed to the milk/Triton solution. […] The PAMPA experiments described herein were performed using plates from Corning Lot #9112010, Lot #9112011 and Lot #7317005 (Corning Inc., Corning, New York, USA).
(§4) To set up PAMPA assays, the PAMPA plate system was equilibrated at room temperature for at least an hour before setting up the assay. The acceptor plate preincubated with milk blocking solution was washed with water, followed by DPBS buffer. 300 μL of 5% DMSO in DPBS at pH=7.4 was added to the pre-blocked acceptor plate, and 200 μL of 10M compounds made with 5% DMSO in DPBS at pH=7.4 was added to the donor plate. The donor plate with a lid was then carefully inserted into the acceptor plate with no bubbles formed at the interface of donor and acceptor plates. The PAMPA assay plate was covered with aluminum foil and placed in a 37° C. incubator for 5 hours. 10 M input solution of all compounds was diluted 20-fold to a final acetonitrile concentration of 50% before analyzing by reverse-phase HPLC and Q-Exactive plus mass spectrometer. At the end of 5 hours, PAMPA donor and acceptor plates were separated and diluted 20-fold and 2-fold respectively to a final acetonitrile concentration of 50%. The diluted solutions of PAMPA donor and acceptor plates were analyzed by reverse-phase HPLC and Q-Exactive plus mass spectrometer.
(§5) Pe measures the passive permeability of each compound tested in the PAMPA assay, whereas % retention measures the amount of compound retained in solution at the end of the assay compared to the input sample.

[4] = in vitro; design: dose or concentration left out as unconfirmed; conditions: PAMPA, pH 7.4, PAMPA Pe
Procedure: as §1, §2, §3, §4, §5

[5] = Table 2, binding to ER LBD, estradiol 1 μM, FITC-ERL4 10 nM, ERβ LBD 200 nM, mean ± S.E.M, at least four replicates
[6] = Table 4, binding to ER LBD, estradiol 1 μM, FITC-ERL4 10 nM, ERβ LBD 200 nM, mean ± S.E.M, at least four replicates
[7] = reverse-phase HPLC, Phenomenex Gemini C-18 column
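Throughout, for % Retention: Phospholipid-membrane PAMPA, donor and acceptor in DPBS pH 7.4 with 5% DMSO, 37 °C for 5 h, compound in each well quantified by reverse-phase HPLC-MS.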
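Throughout, for PAMPA Pe (text): Phospholipid-membrane PAMPA, donor and acceptor in DPBS pH 7.4 with 5% DMSO, 37 °C for 5 h, compound in each well quantified by reverse-phase HPLC-MS.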
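Throughout, for PAMPA Pe: Phospholipid-membrane PAMPA, donor and acceptor in DPBS pH 7.4 with 5% DMSO, 37 °C for 5 h, compound in each well quantified by reverse-phase HPLC-MS.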
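Throughout, for Papp: Phospholipid-membrane PAMPA, donor and acceptor in DPBS pH 7.4 with 5% DMSO, 37 °C for 5 h, compound in each well quantified by reverse-phase HPLC-MS.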

SMILES	chromatographic logD [1]	EC50 [2, 5]	PAMPA Pe (text) [3]	% Retention [3]	Papp at 5 h [4]	EC50 [2, 6]	PAMPA Pe [3]	chromatographic logD [1, 7]	EC50 ([2]; binding towards the ERβ LBD)
CNC(=O)[C@H](Cc1ccc(O)cc1)NC(=O)[C@H](CCC(N)=O)NC(=O)[C@H](CC(C)C)NC(=O)[C@H](CC(C)C)NC(=O)[C@]1(C)CCCC=CC[C@]2(CCCN2C(C)=O)C(=O)N[C@@H](CC(C)C)C(=O)N[C@@H](Cc2c[nH]cn2)C(=O)N1 (single isomer, unassigned) [PLL4-7, Ac-PL3-Leu-His-S5-Leu-Leu-Gln-Tyr-NHMe]	2.5	> 10 µM	0.3-0.7 ×10^−6 cm/sec	46 ± 3%	0.3 ± 0.1 ×10⁻⁶ cm/s				
CNC(=O)[C@H](CC(=O)O)NC(=O)[C@H](CC(C)C)NC(=O)[C@H](CC(C)C)NC(=O)[C@H](Cc1ccc(O)cc1)NC(=O)[C@]1(C)CCCC=CC[C@]2(CCCN2C(C)=O)C(=O)N[C@@H]([C@@H](C)O)C(=O)N[C@@H](CC(C)C)C(=O)N1 (single isomer, unassigned) [PLL5-5, Ac-PL3-Thr-Leu-S5-Tyr-Leu-Leu-Asp-NHMe]	1.4			101 ± 5%	1.4 ± 0.2 ×10⁻⁶ cm/s	> 10 µM			
CNC(=O)[C@H](CC(=O)O)NC(=O)[C@H](CC(C)C)NC(=O)[C@H](CC(C)C)NC(=O)[C@H](Cc1ccc(O)cc1)NC(=O)[C@]1(C)CCCC=CC[C@]2(CCCN2C(C)=O)C(=O)N[C@@H](CCCCN)C(=O)N[C@@H](CC(C)C)C(=O)N1 (single isomer, unassigned) [PLL5-6, Ac-PL3-Lys-Leu-S5-Tyr-Leu-Leu-Asp-NHMe]	1.2			105 ± 5%	1.5 ± 0.2 ×10⁻⁶ cm/s	> 10 µM			
CNC(=O)[C@H](Cc1c[nH]cn1)NC(=O)[C@H](CC(C)C)NC(=O)[C@H](CC(C)C)NC(=O)[C@H](Cc1ccc(O)cc1)NC(=O)[C@]1(C)CCCC=CC[C@]2(CCCN2C(C)=O)C(=O)N[C@@H](CC(C)C)C(=O)N[C@@H](CC(C)C)C(=O)N1 (single isomer, unassigned) [PLL5-11, Ac-PL3-Leu-Leu-S5-Tyr-Leu-Leu-His-NHMe]	3.2			89 ± 1%	≤ 0.1 ×10⁻⁶ cm/s	> 10 µM			
CNC(=O)[C@H](CC(=O)O)NC(=O)[C@H](CC(=O)O)NC(=O)[C@H](CC(C)C)NC(=O)[C@H](CC(C)C)NC(=O)[C@H](Cc1ccc(O)cc1)NC(=O)[C@]1(C)CCCC=CC[C@]2(CCCN2C(C)=O)C(=O)N[C@@H]([C@@H](C)O)C(=O)N[C@@H](CC(C)C)C(=O)N1 (single isomer, unassigned) [PLL7-1, Ac-PL3-Thr-Leu-S5-Tyr-Leu-Leu-Asp-Asp-NHMe]	1		2.1e-06 cm/s	114 ± 3%	2.1 ± 0.4 ×10⁻⁶ cm/s	> 10 µM			
CNC(=O)[C@H](CC(=O)O)NC(=O)[C@H](CCC(N)=O)NC(=O)[C@H](CC(C)C)NC(=O)[C@H](CC(C)C)NC(=O)[C@H](Cc1ccc(O)cc1)NC(=O)[C@]1(C)CCCC=CC[C@]2(CCCN2C(C)=O)C(=O)N[C@@H](C)C(=O)N[C@@H](CC(C)C)C(=O)N1 (single isomer, unassigned) [PLL7-8, Ac-PL3-Ala-Leu-S5-Tyr-Leu-Leu-Gln-Asp-NHMe]	1.7			107 ± 3%	1.4 ± 0.3 ×10⁻⁶ cm/s	> 10 µM			
CNC(=O)[C@H](CC(N)=O)NC(=O)[C@H](CC(C)C)NC(=O)[C@H](CC(C)C)NC(=O)[C@H](Cc1c[nH]cn1)NC(=O)[C@]1(C)CCCC=CC[C@]2(CCCN2C(C)=O)C(=O)N[C@@H](C)C(=O)N[C@@H](CC(C)C)C(=O)N1 (single isomer, unassigned) [PLL7-20, Ac-PL3-Ala-Leu-S5-His-Leu-Leu-Asn-NHMe]	2.1			104 ± 2%	1.3 ± 0.1 ×10⁻⁶ cm/s	> 10 µM	1.3 ± 0.1 (×10^−6) cm/sec		
CC[C@H](C)[C@@H]1NC(=O)[C@]2(CC=CCCC[C@@](C)(C(=O)N[C@@H](CCCNC(=N)N)C(=O)N[C@@H](CC(C)C)C(=O)N[C@@H](CC(C)C)C(=O)N[C@@H](CCC(N)=O)C(=O)N[C@@H](Cc3ccc(O)cc3)C(=O)NC)NC(=O)[C@H](CC(C)C)NC1=O)CCCN2C(C)=O [PLL4-1, Ac-PL3-Ile-Leu-S5-Arg-Leu-Leu-Gln-Tyr-NHMe] (Ac-[X1]IL[S5]RLLQY-NHMe; staple 1-4)				75 ± 2%	≤ 0.1 ×10⁻⁶ cm/s			2.9	0.2 µM
CNC(=O)[C@H](Cc1ccc(O)cc1)NC(=O)[C@H](CC(C)C)NC(=O)[C@H](CC(C)C)NC(=O)[C@H](Cc1c[nH]cn1)NC(=O)[C@H](CCCNC(=N)N)NC(=O)[C@]1(C)CCCC=CC[C@]2(CCCN2C(C)=O)C(=O)N[C@@H](CC(C)C)C(=O)N[C@@H](CC(C)C)C(=O)N1 [PLL4-2, Ac-PL3-Leu-Leu-S5-Arg-His-Leu-Leu-Tyr-NHMe] (Ac-[X1]LL[S5]RHLLY-NHMe; staple 1-4)				43 ± 2%	≤ 0.1 ×10⁻⁶ cm/s			2.7	0.4 µM
CNC(=O)[C@H](CC(=O)O)NC(=O)[C@H](CC(C)C)NC(=O)[C@H](CC(C)C)NC(=O)[C@H](Cc1ccc(O)cc1)NC(=O)[C@H](CCCNC(=N)N)NC(=O)[C@]1(C)CCCC=CC[C@]2(CCCN2C(C)=O)C(=O)N[C@@H](C)C(=O)N[C@@H](CC(C)C)C(=O)N1 [PLL4-4, Ac-PL3-Ala-Leu-S5-Arg-Tyr-Leu-Leu-Asp-NHMe] (Ac-[X1]AL[S5]RYLLD-NHMe; staple 1-4)		7.9 ± 0.4 µM	0.3-0.7 ×10^−6 cm/sec	71 ± 2%	0.5 ± 0.1 ×10⁻⁶ cm/s			2.3	
CNC(=O)[C@H](CC(=O)O)NC(=O)[C@H](CC(C)C)NC(=O)[C@H](CC(C)C)NC(=O)[C@H](Cc1ccc(O)cc1)NC(=O)[C@]1(C)CCCC=CC[C@]2(CCCN2C(C)=O)C(=O)N[C@@H](CC(C)C)C(=O)N[C@@H](CC(C)C)C(=O)N1 [PLL4-10, Ac-PL3-Leu-Leu-S5-Tyr-Leu-Leu-Asp-NHMe] (Ac-[X1]LL[S5]YLLD-NHMe; staple 1-4)			0.3-0.7 ×10^−6 cm/sec	63 ± 4%	0.6 ± 0.1 ×10⁻⁶ cm/s		0.6 ± 0.1 (×10^−6) cm/sec	2.4	1.5 µM
CCCC[C@H](NC(=O)[C@]1(C)CCCC=CC[C@]2(CCCN2C(C)=O)C(=O)N[C@@H](CC(C)C)C(=O)N[C@@H](CCCNC(=N)N)C(=O)N1)C(=O)N[C@@H](CC(C)C)C(=O)N[C@@H](C)C(=O)N[C@@H](Cc1ccc(O)cc1)C(=O)NC [PLL4-12, Ac-PL3-Leu-Arg-S5-Nle-Leu-Ala-Tyr-NHMe] (Ac-[X1]LR[S5][Nle]LAY-NHMe; staple 1-4)		7.5 ± 0.4 µM		42 ± 2%	≤ 0.1 ×10⁻⁶ cm/s			2.7	
CNC(=O)[C@H](CC(=O)O)NC(=O)[C@H](CC(=O)O)NC(=O)[C@H](CC(C)C)NC(=O)[C@H](CC(C)C)NC(=O)[C@H](Cc1ccc(O)cc1)NC(=O)[C@]1(C)CCCC=CC[C@]2(CCCN2C(C)=O)C(=O)N[C@@H](CC(C)C)C(=O)N[C@@H](CC(C)C)C(=O)N1 [PLL5-2, Ac-PL3-Leu-Leu-S5-Tyr-Leu-Leu-Asp-Asp-NHMe] (Ac-[X1]LL[S5]YLLDD-NHMe; staple 1-4)				97 ± 2%	1.6 ± 0.1 ×10⁻⁶ cm/s		1.6 ± 0.1 (×10^−6) cm/sec	1.7	0.8 to 1.3 µM

Reference: patent publication US20230357320A1, “HELICAL STAPLED PEPTIDES AND USES THEREOF” (FOG PHARMACEUTICALS, INC., priority 2020, published 2023)
